Assay results published in the NIST ThermoML archive (doi:10.1021/acs.jced.5b00105).
Numbers after ± are expanded uncertainties.

Assay: xn = mol fraction of the nth substance listed
Conditions: for surface tension liquid-gas: Drop volume; for viscosity / mass density: 100 kPa, Liquid; for viscosity: Concentric cylinders viscometry; for mass density: Vibrating tube method

CC1CCCCC1 [methylcyclohexane] + CC(C)CC(C)(C)C
Conditions	mass density [kg/m3]	surface tension liquid-gas [mN/m]	viscosity [mPa·s]
293.15 K, x1 = 0.0999	–	19.34 ± 0.24	–
293.15 K, x1 = 0.1012	698.32 ± 0.19	–	0.532 ± 0.085
293.15 K, x1 = 0.1999	–	19.77 ± 0.24	–
293.15 K, x1 = 0.2003	704.87 ± 0.18	–	0.546 ± 0.088
293.15 K, x1 = 0.2997	–	20.13 ± 0.24	–
293.15 K, x1 = 0.3001	711.73 ± 0.18	–	0.562 ± 0.09
293.15 K, x1 = 0.4	–	20.54 ± 0.24	–
293.15 K, x1 = 0.4019	719.01 ± 0.17	–	0.58 ± 0.093
293.15 K, x1 = 0.5	–	20.99 ± 0.24	–
293.15 K, x1 = 0.5008	726.4 ± 0.17	–	0.599 ± 0.096
293.15 K, x1 = 0.6	734.15 ± 0.17	21.52 ± 0.24	0.62 ± 0.099
293.15 K, x1 = 0.6998	742.32 ± 0.16	–	0.644 ± 0.1
293.15 K, x1 = 0.7001	–	22.1 ± 0.24	–
293.15 K, x1 = 0.7999	–	22.64 ± 0.24	–
293.15 K, x1 = 0.8	750.91 ± 0.16	–	0.671 ± 0.11
293.15 K, x1 = 0.9	759.88 ± 0.16	23.29 ± 0.24	0.701 ± 0.11
293.15 K, x1 = 1	769.35 ± 0.15	23.87 ± 0.24	0.735 ± 0.12
298.15 K, x1 = 0.0999	–	18.75 ± 0.24	–
298.15 K, x1 = 0.1012	694.22 ± 0.19	–	0.506 ± 0.081
298.15 K, x1 = 0.1999	–	19.1 ± 0.24	–
298.15 K, x1 = 0.2003	700.73 ± 0.18	–	0.519 ± 0.083
298.15 K, x1 = 0.2997	–	19.44 ± 0.24	–
298.15 K, x1 = 0.3001	707.58 ± 0.18	–	0.533 ± 0.085
298.15 K, x1 = 0.4	–	19.84 ± 0.24	–
298.15 K, x1 = 0.4019	714.85 ± 0.17	–	0.549 ± 0.088
298.15 K, x1 = 0.5	–	20.2 ± 0.24	–
298.15 K, x1 = 0.5008	722.23 ± 0.17	–	0.566 ± 0.091
298.15 K, x1 = 0.6	729.96 ± 0.17	20.69 ± 0.24	0.585 ± 0.094
298.15 K, x1 = 0.6998	738.11 ± 0.16	–	0.606 ± 0.097
298.15 K, x1 = 0.7001	–	21.26 ± 0.24	–
298.15 K, x1 = 0.7999	–	21.81 ± 0.24	–
298.15 K, x1 = 0.8	746.67 ± 0.16	–	0.631 ± 0.1
298.15 K, x1 = 0.9	755.61 ± 0.16	22.41 ± 0.24	0.66 ± 0.11
298.15 K, x1 = 1	765.05 ± 0.15	23.02 ± 0.24	0.692 ± 0.11
303.15 K, x1 = 0.0999	–	18.32 ± 0.24	–
303.15 K, x1 = 0.1012	690.06 ± 0.19	–	0.482 ± 0.077
303.15 K, x1 = 0.1999	–	18.62 ± 0.23	–
303.15 K, x1 = 0.2003	696.57 ± 0.18	–	0.494 ± 0.079
303.15 K, x1 = 0.2997	–	18.99 ± 0.23	–
303.15 K, x1 = 0.3001	703.4 ± 0.18	–	0.507 ± 0.081
303.15 K, x1 = 0.4	–	19.38 ± 0.23	–
303.15 K, x1 = 0.4019	710.66 ± 0.18	–	0.521 ± 0.084
303.15 K, x1 = 0.5	–	19.73 ± 0.23	–
303.15 K, x1 = 0.5008	718.01 ± 0.17	–	0.537 ± 0.086
303.15 K, x1 = 0.6	725.72 ± 0.17	20.21 ± 0.24	0.554 ± 0.089
303.15 K, x1 = 0.6998	733.85 ± 0.16	–	0.573 ± 0.092
303.15 K, x1 = 0.7001	–	20.72 ± 0.24	–
303.15 K, x1 = 0.7999	–	21.32 ± 0.24	–
303.15 K, x1 = 0.8	742.38 ± 0.16	–	0.595 ± 0.095
303.15 K, x1 = 0.9	751.3 ± 0.16	21.92 ± 0.24	0.621 ± 0.1
303.15 K, x1 = 1	760.71 ± 0.15	22.55 ± 0.24	0.651 ± 0.1
308.15 K, x1 = 0.0999	–	17.84 ± 0.23	–
308.15 K, x1 = 0.1012	–	–	0.46 ± 0.074
308.15 K, x1 = 0.1999	–	18.12 ± 0.23	–
308.15 K, x1 = 0.2003	–	–	0.471 ± 0.076
308.15 K, x1 = 0.2997	–	18.43 ± 0.23	–
308.15 K, x1 = 0.3001	–	–	0.483 ± 0.077
308.15 K, x1 = 0.4	–	18.8 ± 0.23	–
308.15 K, x1 = 0.4019	–	–	0.496 ± 0.08
308.15 K, x1 = 0.5	–	19.19 ± 0.23	–
308.15 K, x1 = 0.5008	–	–	0.51 ± 0.082
308.15 K, x1 = 0.6	–	19.64 ± 0.23	0.525 ± 0.084
308.15 K, x1 = 0.6998	–	–	0.543 ± 0.087
308.15 K, x1 = 0.7001	–	20.23 ± 0.23	–
308.15 K, x1 = 0.7999	–	20.75 ± 0.24	–
308.15 K, x1 = 0.8	–	–	0.564 ± 0.09
308.15 K, x1 = 0.9	–	21.44 ± 0.24	0.587 ± 0.094
308.15 K, x1 = 1	–	22.12 ± 0.24	0.615 ± 0.099
